# Measurements: US20250376481A1, “POLYCYCLIC CARBAMOYL PYRIDONE DERIVATIVE, PREPARATION METHOD THEREFOR AND PHARMACEUTICAL COMPOSITION THEREOF” (NANJING AIDEA PHARMACEUTICAL TECHNOLOGY CO., LTD., priority 2021, published 2025)
# Like-named read-outs stand apart in the source and are kept apart here.
# Legend:
# [1] = PK test of compounds (mouse); type: in vivo, ICR mice; conditions: for bioavailability (in words): PK test in mice; for half-life / bioavailability: male, mouse, plasma, ICR mice; for half-life: PO 10 mg/kg; for bioavailability: PO 10 mg/kg (IV 2 mg/kg)
# Experimental: The mice were not fed until 5 pm on the day before administration, and fasted overnight with water. The mice in Group IV were administered with 2 mg/kg, while those in Group PO were administered with 10 mg/kg. Feeding was resumed 2 hours after administration. For mice administered by gavage, 20 μL blood was collected from the saphenous vein in calf before administration and 0.25, 0.5, 1, 2, 4, 8, and 24 hours after administration, respectively, and placed in EDTA-K2 anticoagulant blood collection tubes, and then the blood would be placed on ice until centrifuged to obtain plasma samples. The plasma samples were centrifuged at 4° C. (3500 rpm, 10 min), and after separation, the samples were transferred to EP tubes and stored at −80° C. for detection. For mice admistrated by intravenous injection, 20 μL blood was collected from the saphenous vein in calf before administration and 0.0833, 0.25, 0.5, 1, 2, 4, 8 and 24 hours after administration, respectively, and placed in EDTA-K2 anticoagulant blood collection tubes, and then the blood would be placed on ice until centrifuged to obtain a plasma sample. The plasma samples were centrifuged at 4° C. (3500 rpm, 10 min), and after separation, the samples were transferred to EP tubes and stored at −80° C. for detection. The level of tested compounds in blood plasma of mice, who had orally administrated with different concentrations of drugs were determinated: 10 μL mouse blood at each time point after administration was taken, 100 μL methanol containing an internal standard (100 ng/mL) was added, vortex mixed for 1 minute, centrifuged at 4° C. (12000 rmp, 5 minutes), and 1 μL supernatant was taken from the plasma samples for LC-MS/MS analysis.
# [2] = Oil-water partition coefficient (n-octanol / pH 7.4 phosphate buffer); type: physicochemical
# Experimental: • a) To a 5 mL glass bottle was added 1 mL n-octanol and 1 mL pH 7.4 phosphate buffer, respectively. • b) The compound was added to a DMSO solution to prepare a compound stock solution with a concentration of 10 mM, and then 20 μL compound stock solution was added to the mixture solution of n-octanol and phosphate buffer. • c) Shaken at room temperature for 1 hour at a rate of 300/minute. • d) Kept for 30 minutes, and after the solution was completely layered, the upper and lower layers of the solution were taken separately to a 96 well deep well plate, and LC-MS/MS was used for detection via injection. • e) The aliquots of 1-octanol and aqueous solution were diluted consecutively with DMSO to obtain the final sample for LC-MS/MS analysis. Three consecutive dilutions were carried on every 1-octanol phase with covering a concentration range of 2500 fold. Every final aqueous phase was diluted consecutively twice with covering a concentration range of 100 fold. The MS peak areas of these solutions were used to generate log (peak area) based on the log (relative concentration) calibration line.
# [formula] • Coct=sample concentration in n-octanol • Caq=sample concentration in pH 7.4 phosphate buffer
# [3] = Cytotoxicity test (cell viability, CellTier Glo); type: cell-based; conditions: human
# Experimental: (§1) • Virus: The HIV-1 pseudovirus used in this experiment was a replication deficient virus, which is constructed by WuXi AppTec. • HEK 293T cell line was purchased from ATCC, and Item No. is CRL-11268. Cells were cultured in DMEM medium with 10% fetal bovine serum and 1% double antibody. • Reagents
# (§2) On the first day, HEK 293T cells were inoculated into a 96 well test plate at the density of 55000 cells per well and […] per well, and incubated overnight in a 5% CO2 and 37° C. incubator.
# (§3) On the second day, the tested compounds (compounds provided in the example of the present invention) and the control compounds were diluted 4-fold with cell culture medium for a total of 8 concentration points, and 50 μL diluted compounds were added to each well, and each well was performed duplicate.
# (§4) Cell Control (cells, no compound treatment or virus infection) and virus control (cells infected with virus, no compound treatment) were set up. The final initial test concentration of the tested compounds and control compounds was 1000 nM (Table 1), and the amount of virus infection was 100 TCID50 per well. The total volume of cell culture medium was 200 μL per well, and the final concentration of DMSO in the culture medium was 0.5%.
# (§5) The cells were cultured in a 5% CO2 and 37° C. incubator for additional 3 days.
# (§6) On the fifth day, in the cytotoxicity test plates, 100 μL cell supernatant were sucked from each well, 100 μL cell viability assay reagent CellTier Gloin was added in dark. Cell viability in each well was detected by BioTek enzyme-linked immunosorbent assay reader, and the data was used for sample cytotoxicity analysis.
# (§7) Dose-response curve was drawn through GraphPad Prism software. The calculation equations for antiviral activity (% Inhibition) and cell viability (% cell viability) were as follow:
# (§8) The values of EC50 and CC50 were analyzed by GraphPad Prism (version 5) software, and nonlinear fitting analysis was used for inhibitory activity and cell viability of the compounds, and the fitting method was “log (inhibitor) vs. response—Variable slope”.
# (§9) 3. The HIV-1 pseudovirus experiment was applied to determinate the in vitro antiviral activity and cytotoxicity of the tested compound on HEK 293T cells, and the experimental results were shown in the table below.
# [4] = tested on: HIV-1 pseudovirus; test: HIV-1 pseudovirus infection test (antiviral activity, luciferase); type: cell-based
# Experimental: as §1, §2, §3
# Subsequently, the HIV-1 pseudovirus was diluted to 100 TCID50/50 μL with cell culture medium, and 50 μL diluted virus was added to each well.
# as §4, §5
# On the fifth day, in the antiviral activity test plates, 100 μL cell supernatant was sucked away from each well, 100 μL 2X luciferase reporter gene assay reagent Britellite plus was added in dark. The luciferase activity in each well of the test plates was detected by Envision. The data was used for sample antiviral activity analysis.
# as §7, §8, §9
# [5] = tested on: HEK 293T cells; test: Cytotoxicity test (cell viability, CellTier Glo); type: cell-based; conditions: HEK 293T cells, highest test concentration 1000 nM
# Experimental: as §1, §2, §3, §4, §5, §6, §7, §8, §9
# [6] = target: HIV-1 integrase (Human immunodeficiency virus type 1 group M subtype B, UniProt P04585); test: Integrase activity test (HIV-1 Integrase Assay Kit EZ-1700)
# Experimental: A non-radioactive assay method, an integrase assay kit, was used to measure integrase activity quantitatively.
# Each component was prepared according to the instructions of the kit; preparation of test sample, 5 mM DMSO solution was prepared for backup, working solution was prepared according to the initial final concentration determined at the time of method establishment, with a 4-fold gradient dilution and 10 concentrations.
# • (1) The working solution of sample was prepared according to the initial concentration determinated during the methodology establishment process; • (2) Reagents were prepared according to the methods provided in the kit; • (3) DS DNA coating—blocking—addition of integrase solution—addition of sample—addition of TS DNA—addition of HRP antibody-addition of TMB peroxidase substrate—TMB termination reaction-detection of light absorption value at 450 nm.
# The software Graphpad Prism 8.0 was applied and the calculation equation of Log (inhibitor) vs. response variable slope was used to fit the IC50 curve.
# [7] = n-octanol / pH 7.4 phosphate buffer, pH 7.4, read-out: Log D (pH 7.4)
# [8] = Human immunodeficiency virus 1, HEK-293T, 72 h
# [9] = HIV-1 pseudovirus, HEK 293T cells, 3 days, luciferase, read-out: EC50
molecule,measurement,setting,value
C[C@H]1N2C(=O)c3c(O)c(=O)c(C(=O)NCc4ccc(F)cc4F)cn3C[C@@H]2OC12CC2 [Compound 10],bioavailability (in words),[1],good bioavailability
same,half-life,[1],1.53 ± 1.06 h
same,bioavailability,[1],32.9%
same,logD,[2]; [7],1.9
same,CC50 at 3 days,[3],> 1000 nM
same,EC50,[4]; [8],2.7 nM
"(R)—N-(2,4-difluorophenyl)-6′-hydroxy-5′,7′-dioxo-5′,7′,11′,11a′-tetrahydro-2′H-spiro[cyclopropane-1,3′-oxazole[3,2-a]pyridino[1,2-d]pyrazine]-8′-formamide [Compound 18]",CC50,[5],> 1000 nM
same,EC50,[4]; [9],3.34 nM
C[C@@H]1CC2(CC2)O[C@H]2Cn3cc(C(=O)NCc4ccc(F)cc4F)c(=O)c(O)c3C(=O)N12 [Compound 6],bioavailability (in words),[1],good bioavailability
same,half-life,[1],2.68 ± 0.66 h
same,bioavailability,[1],42.5%
same,logD,[2]; [7],2
same,CC50 at 3 days,[3],> 1000 nM
same,EC50,[4]; [8],3.03 nM
C[C@H]1N2C(=O)c3c(O)c(=O)c(C(=O)NCc4ccc(F)cc4F)cn3C[C@@H]2OCC12CCCC2 [Compound 3],CC50 at 3 days,[3],> 1000 nM
same,EC50,[4]; [8],5.63 nM
O=C(NCc1ccc(F)cc1F)c1cn2c(c(O)c1=O)C(=O)N1C(C2)OCC12CC2 (racemic) [Compound 16],logD,[2]; pH 7.4,1.8
same,CC50 at 3 days,[3],> 1000 nM
same,EC50,[4]; [8],1.11 nM
C[C@H]1N2C(=O)c3c(O)c(=O)c(C(=O)NCc4ccc(F)cc4F)cn3C[C@@H]2OC12CCCCC2 [Compound 12],CC50 at 3 days,[3],> 1000 nM
same,EC50,[4]; [8],4.93 nM
C[C@H]1N2C(=O)c3c(O)c(=O)c(C(=O)NCc4ccc(F)cc4F)cn3C[C@@H]2OCC12CCCCC2 [Compound 4],CC50 at 3 days,[3],> 1000 nM
same,EC50,[4]; [8],5.83 nM
"Cc1nnc(C(=O)NC(C)(C)c2nc(C(=O)NCc3ccc(F)cc3)c(O)c(=O)n2C)o1 [RAL, Raltegravir, reference compound]",CC50 at 3 days,"[3]; HEK 293T cells, highest test concentration 1000 nM, read-out: CC50",> 1000 nM
same,antiviral activity against HIV-1 pseudovirus (in words),[4]; HEK 293T cells,have antiviral activity
same,EC50,[4]; [8],3.42 nM
C[C@H]1N2C(=O)c3c(O)c(=O)c(C(=O)NCc4ccc(F)cc4F)cn3C[C@@H]2OCC12CCC2 [Compound 2],bioavailability (in words),[1],good bioavailability
same,half-life,[1],1.94 ± 0.04 h
same,bioavailability,[1],50.8%
same,logD,[2]; [7],2.5
same,CC50 at 3 days,[3],> 1000 nM
same,EC50,[4]; [8],1.19 nM
"(R)—N-(2,4-difluorophenyl)-7′-hydroxy-6′,8′-dioxo-2′,3′,6′,8′,12′,12a′-hexahydrospiro[cyclopropane-1,4′-pyridino[1′,2′:4,5]pyrazine[2,1-b][1,3]oxazine]-9′-formamide [Compound 15]",CC50,[5],> 1000 nM
same,EC50,[4]; [9],14 nM
"C[C@@H]1CCO[C@H]2Cn3cc(C(=O)NCc4ccc(F)cc4F)c(=O)c(O)c3C(=O)N12 [DTG, Dolutegravir, reference compound]",half-life,[1],3.7 ± 0.09 h
same,bioavailability,[1],46%
same,logD,[2]; [7],1.6
same,CC50 at 3 days,[3],> 1000 nM
same,antiviral activity against HIV-1 pseudovirus (in words),[4]; HEK 293T cells,have antiviral activity
same,EC50,[4]; [8],1.49 nM
C[C@@H]1CC2(CCCC2)O[C@H]2Cn3cc(C(=O)NCc4ccc(F)cc4F)c(=O)c(O)c3C(=O)N12 [Compound 7],CC50 at 3 days,[3],> 1000 nM
same,EC50,[4]; [8],11.6 nM
C[C@H]1N2C(=O)c3c(O)c(=O)c(C(=O)NCc4ccc(F)cc4F)cn3C[C@@H]2OCC12CCOCC2 [Compound 5],CC50 at 3 days,[3],> 1000 nM
same,EC50,[4]; [8],4.45 nM
"(S)—N-(2,4-difluorophenyl)-7′-hydroxy-6′,8′-dioxo-2′,3′,6′,8′,12′,12a′-hexahydrospiro[cyclopropane-1,4′-pyridino[1′,2′:4,5]pyrazine[2,1-b][1,3]oxazine]-9′-formamide [Compound 14]",CC50,[5],> 1000 nM
same,EC50,[4]; [9],8.72 nM
C[C@@H]1CC2(CCCCC2)O[C@H]2Cn3cc(C(=O)NCc4ccc(F)cc4F)c(=O)c(O)c3C(=O)N12 [Compound 8],CC50 at 3 days,[3],> 1000 nM
same,EC50,[4]; [8],13.7 nM
"O=C(NCc1c(F)cc(F)cc1F)c1cn2c(c(O)c1=O)C(=O)N1[C@H]3CC[C@H](C3)O[C@@H]1C2 [BIC, Bictegravir, reference compound]",IC50,[6],21.2 nM
"(S)—N-(2,4-difluorophenyl)-6′-hydroxy-5′,7′-dioxo-5′,7′,11′,11a′-tetrahydro-2′H-spiro[cyclopropane-1,3′-oxazole[3,2-a]pyridino[1,2-d]pyrazine]-8′-formamide [Compound 17]",CC50,[5],> 1000 nM
same,EC50,[4]; [9],3.73 nM
C[C@@H]1CC2(CCOCC2)O[C@H]2Cn3cc(C(=O)NCc4ccc(F)cc4F)c(=O)c(O)c3C(=O)N12 [Compound 9],CC50 at 3 days,[3],> 1000 nM
same,EC50,[4]; [8],5.09 nM
"C[C@]12CC[C@H]3[C@@H](CCC4=CC(=O)CC[C@@]43C)[C@@H]1CC[C@@H]2O [Testosterone, reference compound]",logD,"[2]; n-octanol / pH 7.4 phosphate buffer, read-out: Log D (pH 7.4)",2.85
"O=C(NCc1ccc(F)cc1F)c1cn2c(c(O)c1=O)C(=O)N1C(C2)OCCC12CC2 (racemic) [Compound 13, (2,4-difluorophenyl)-7′-hydroxy-6′,8′-dioxo-2′,3′,6′,8′,12′,12a′-hexahydrospiro[cyclopropane-1,4′-pyridino[1′,2′:4,5]pyrazine[2,1-b][1,3]oxazine]-9′-formamide]",logD,[2]; pH 7.4,1.5
same,CC50 at 3 days,[3],> 1000 nM
same,EC50,[4]; [8],1.05 nM
